Consider one compound from US10835533B2, “1 -((3S,4R)-4-(3-fluorophenyl)-1-(2-methoxyethyl)pyrrolidin-3-yl)-3-(4-methyl-3-(2-methylpyrimidin-5-yl)-1-phenyl-1H-pyrazol-5-yl)urea as a TrkA kinase inhibitor” (Array BioPharma Inc., priority 2014, dated 2020).

The subject of one assay is off-target kinases. Description: KinaseProfiler off-target kinase profiling, full kinase panel (Example H). The format is biochemical. To be noted: 10 μM, ATP near the Km. The method, then:
Compound 1 was tested for off-target kinase activity at a concentration of 10 μM by Millipore, Inc. in their KinaseProfiler™ service against all the kinases available in their full kinase panel. Compound 1 was run in duplicate at a concentration of ATP near the Km for each individual kinase according to Millipore's specifications. Data are reported as percent of control (POC) and are the average of the two replicates.

Another assay has as its system TrkA. Description: Estimated inhibition of TrkA after oral dose of 10 mg/kg in rats (FIGS. 3 and 4). To be noted: oral dose of 10 mg/kg in rats; relative to Compound 2 and Compound 3; calculated from plasma concentration and IC50. The method, then: FIGS. 3 and 4 illustrate the estimated inhibition of TrkA for Compound 1 after an oral dose of 10 mg/kg in rats of relative to Compound 2, and for Compound 1 relative to Compound 3, respectively. The curves in FIGS. 3 and 4 were calculated using the following equation: […]
where Imin and Imax are the minimum and maximum possible inhibition of the target, respectively, IC50 is the concentration at which the target is inhibited by 50%, C is the concentration of the inhibitor, and n is the Hill slope.

For another assay, the target named is T1, Axl (Homo sapiens, UniProt P30530).
T1 construct: purchased Millipore, Inc. (KinaseProfiler service)
As to the kind of experiment: KinaseProfiler kinase profiling. In kind it is biochemical. To be noted: 10 μM, ATP near Km. Put shortly:
(§1)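 10 μM cpd, duplicate, [ATP] ≈ Km per kinase. Output = POC, mean of n=2.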

The target of another assay is T2, DRAK1 (Homo sapiens, UniProt Q9UEE5).
T2 construct: purchased Millipore, Inc. (KinaseProfiler service)
As to the kind of experiment: KinaseProfiler kinase profiling. The format is biochemical. To be noted: 10 μM, ATP near Km. Put shortly:
as §1

In a further assay the target is T3, Pim-3 (Homo sapiens, UniProt Q86V86).
T3 construct: purchased Millipore, Inc. (KinaseProfiler service)
Description: KinaseProfiler kinase profiling. The format is biochemical. Conditions: 10 μM, ATP near Km. In outline:
as §1

A further assay deals with T4, CHK2 (Homo sapiens, UniProt O96017).
T4 construct: purchased Millipore, Inc. (KinaseProfiler service)
T4 sequence (O96017 whole entry): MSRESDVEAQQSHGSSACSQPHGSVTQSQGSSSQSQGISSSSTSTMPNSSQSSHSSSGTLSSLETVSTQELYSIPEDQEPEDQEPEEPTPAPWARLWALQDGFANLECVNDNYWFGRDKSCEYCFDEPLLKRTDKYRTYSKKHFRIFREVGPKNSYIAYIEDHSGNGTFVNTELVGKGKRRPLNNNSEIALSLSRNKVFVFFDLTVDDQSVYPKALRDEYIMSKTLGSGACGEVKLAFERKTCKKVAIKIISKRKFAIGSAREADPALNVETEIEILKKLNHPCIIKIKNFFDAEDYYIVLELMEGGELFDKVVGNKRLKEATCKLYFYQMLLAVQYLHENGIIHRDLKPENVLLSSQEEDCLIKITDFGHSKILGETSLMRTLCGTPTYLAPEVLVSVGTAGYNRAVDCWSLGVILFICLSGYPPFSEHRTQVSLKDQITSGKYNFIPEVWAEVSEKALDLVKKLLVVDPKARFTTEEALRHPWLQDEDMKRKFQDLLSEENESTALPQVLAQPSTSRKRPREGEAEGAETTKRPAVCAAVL
As to the kind of experiment: KinaseProfiler kinase profiling. The format is biochemical. To be noted: 10 μM, ATP near Km. Put shortly:
as §1

The target in a further assay is T5, GRK7 (Homo sapiens, UniProt Q8WTQ7).
T5 construct: purchased Millipore, Inc. (KinaseProfiler service)
Description: KinaseProfiler kinase profiling. The format is biochemical. Conditions: 10 μM, ATP near Km. In outline: as §1

The target of the next assay is T6, MKK6 (Homo sapiens, UniProt P52564).
T6 construct: purchased Millipore, Inc. (KinaseProfiler service)
As to the kind of experiment: KinaseProfiler kinase profiling. In kind it is biochemical. To be noted: 10 μM, ATP near Km. In outline:
as §1

The next assay concerns the target T7, CAMK1d (Homo sapiens, UniProt Q8IU85).
T7 construct: purchased Millipore, Inc. (KinaseProfiler service)
Description: KinaseProfiler kinase profiling. The format is biochemical. To be noted: 10 μM, ATP near Km. Put shortly:
as §1

A further assay concerns the target T8, PrKX (Homo sapiens, UniProt P51817).
T8 construct: purchased Millipore, Inc. (KinaseProfiler service)
As to the kind of experiment: KinaseProfiler kinase profiling. The format is biochemical. Conditions: 10 μM, ATP near Km. In outline:
as §1

The target of another assay is T9, SRPK2 (Homo sapiens, UniProt P78362).
T9 construct: purchased Millipore, Inc. (KinaseProfiler service)
T9 sequence (P78362 whole entry): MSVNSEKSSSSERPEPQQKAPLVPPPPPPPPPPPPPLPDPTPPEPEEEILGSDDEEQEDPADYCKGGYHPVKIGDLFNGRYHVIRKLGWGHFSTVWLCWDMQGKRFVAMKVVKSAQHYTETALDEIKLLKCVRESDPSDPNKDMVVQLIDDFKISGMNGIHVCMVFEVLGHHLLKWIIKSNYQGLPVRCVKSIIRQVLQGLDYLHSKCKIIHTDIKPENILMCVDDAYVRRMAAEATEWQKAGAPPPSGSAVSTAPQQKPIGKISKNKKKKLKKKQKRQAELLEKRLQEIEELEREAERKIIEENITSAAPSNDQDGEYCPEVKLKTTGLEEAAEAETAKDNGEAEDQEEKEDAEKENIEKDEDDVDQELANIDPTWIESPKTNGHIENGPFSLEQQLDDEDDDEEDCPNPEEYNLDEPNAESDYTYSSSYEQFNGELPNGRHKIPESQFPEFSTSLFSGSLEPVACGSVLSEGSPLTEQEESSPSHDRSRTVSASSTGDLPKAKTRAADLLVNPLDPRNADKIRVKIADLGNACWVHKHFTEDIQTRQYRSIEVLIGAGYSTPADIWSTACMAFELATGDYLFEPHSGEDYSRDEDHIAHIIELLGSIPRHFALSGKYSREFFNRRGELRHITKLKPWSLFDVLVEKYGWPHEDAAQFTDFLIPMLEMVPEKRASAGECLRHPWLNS
Description: KinaseProfiler kinase profiling. The format is biochemical. Conditions: 10 μM, ATP near Km. In outline:
as §1

The target in a further assay is T10, DYRK2 (Homo sapiens, UniProt Q92630).
T10 construct: purchased Millipore, Inc. (KinaseProfiler service)
As to the kind of experiment: KinaseProfiler kinase profiling. In kind it is biochemical. Conditions: 10 μM, ATP near Km. In outline:
as §1

A further assay deals with T11, MEK1 (Homo sapiens, UniProt Q02750).
T11 construct: purchased Millipore, Inc. (KinaseProfiler service)
T11 sequence (Q02750 whole entry): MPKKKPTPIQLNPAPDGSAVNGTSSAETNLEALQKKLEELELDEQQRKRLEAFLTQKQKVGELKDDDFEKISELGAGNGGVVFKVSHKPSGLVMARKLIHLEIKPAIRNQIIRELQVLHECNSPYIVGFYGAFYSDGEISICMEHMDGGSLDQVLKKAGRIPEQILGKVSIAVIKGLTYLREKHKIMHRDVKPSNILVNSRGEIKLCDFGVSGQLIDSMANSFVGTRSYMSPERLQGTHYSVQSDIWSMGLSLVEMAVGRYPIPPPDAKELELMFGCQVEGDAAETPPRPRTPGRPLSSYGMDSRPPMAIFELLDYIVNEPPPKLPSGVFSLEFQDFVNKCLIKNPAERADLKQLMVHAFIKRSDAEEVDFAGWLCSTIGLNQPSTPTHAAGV
Description: KinaseProfiler kinase profiling. In kind it is biochemical. To be noted: 10 μM, ATP near Km. Put shortly:
as §1

In a further assay the target is T12, Lyn (Homo sapiens, UniProt P07948).
T12 construct: purchased Millipore, Inc. (KinaseProfiler service)
T12 sequence (P07948 whole entry): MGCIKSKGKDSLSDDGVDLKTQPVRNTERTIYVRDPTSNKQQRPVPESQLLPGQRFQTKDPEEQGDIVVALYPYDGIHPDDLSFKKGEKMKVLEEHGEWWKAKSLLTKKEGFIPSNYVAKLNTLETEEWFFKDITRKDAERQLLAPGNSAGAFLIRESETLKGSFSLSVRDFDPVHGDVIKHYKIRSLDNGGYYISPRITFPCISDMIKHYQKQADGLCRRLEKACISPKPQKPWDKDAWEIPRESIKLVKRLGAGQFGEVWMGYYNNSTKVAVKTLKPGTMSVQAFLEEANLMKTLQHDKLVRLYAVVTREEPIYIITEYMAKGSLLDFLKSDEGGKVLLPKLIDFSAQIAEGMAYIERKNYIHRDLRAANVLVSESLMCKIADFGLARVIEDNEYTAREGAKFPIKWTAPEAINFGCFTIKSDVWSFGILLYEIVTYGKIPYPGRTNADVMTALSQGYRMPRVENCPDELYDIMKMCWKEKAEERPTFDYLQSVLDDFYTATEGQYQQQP
Description: KinaseProfiler kinase profiling. In kind it is biochemical. To be noted: 10 μM, ATP near Km. Put shortly:
as §1

The target in the next assay is T13, Plk1 (Homo sapiens, UniProt P53350).
T13 construct: purchased Millipore, Inc. (KinaseProfiler service)
T13 sequence (P53350 whole entry): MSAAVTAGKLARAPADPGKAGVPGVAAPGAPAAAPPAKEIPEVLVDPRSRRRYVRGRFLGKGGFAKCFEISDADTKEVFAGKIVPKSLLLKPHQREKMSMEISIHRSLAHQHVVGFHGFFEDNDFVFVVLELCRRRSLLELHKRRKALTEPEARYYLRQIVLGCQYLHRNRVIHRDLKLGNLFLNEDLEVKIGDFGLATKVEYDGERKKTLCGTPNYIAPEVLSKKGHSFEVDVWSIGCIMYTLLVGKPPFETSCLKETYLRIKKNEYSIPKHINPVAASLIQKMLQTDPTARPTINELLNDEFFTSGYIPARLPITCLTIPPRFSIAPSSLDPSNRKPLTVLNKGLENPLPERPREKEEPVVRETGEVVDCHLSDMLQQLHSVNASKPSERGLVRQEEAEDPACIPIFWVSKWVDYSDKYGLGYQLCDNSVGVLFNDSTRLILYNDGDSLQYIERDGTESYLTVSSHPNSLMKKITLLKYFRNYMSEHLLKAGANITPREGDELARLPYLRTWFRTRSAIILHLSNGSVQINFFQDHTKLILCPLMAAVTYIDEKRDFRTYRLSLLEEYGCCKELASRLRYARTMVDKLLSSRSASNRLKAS
As to the kind of experiment: KinaseProfiler kinase profiling. In kind it is biochemical. To be noted: 10 μM, ATP near Km. Put shortly:
as §1

The target of a further assay is T14, CLK2 (Homo sapiens, UniProt P49760).
T14 construct: purchased Millipore, Inc. (KinaseProfiler service)
Description: KinaseProfiler kinase profiling. To be noted: 10 μM, ATP near Km. In kind it is biochemical. In outline: as §1

For a further assay, the target named is T15, GRK5 (Homo sapiens, UniProt P34947).
T15 construct: purchased Millipore, Inc. (KinaseProfiler service)
T15 sequence (P34947 whole entry): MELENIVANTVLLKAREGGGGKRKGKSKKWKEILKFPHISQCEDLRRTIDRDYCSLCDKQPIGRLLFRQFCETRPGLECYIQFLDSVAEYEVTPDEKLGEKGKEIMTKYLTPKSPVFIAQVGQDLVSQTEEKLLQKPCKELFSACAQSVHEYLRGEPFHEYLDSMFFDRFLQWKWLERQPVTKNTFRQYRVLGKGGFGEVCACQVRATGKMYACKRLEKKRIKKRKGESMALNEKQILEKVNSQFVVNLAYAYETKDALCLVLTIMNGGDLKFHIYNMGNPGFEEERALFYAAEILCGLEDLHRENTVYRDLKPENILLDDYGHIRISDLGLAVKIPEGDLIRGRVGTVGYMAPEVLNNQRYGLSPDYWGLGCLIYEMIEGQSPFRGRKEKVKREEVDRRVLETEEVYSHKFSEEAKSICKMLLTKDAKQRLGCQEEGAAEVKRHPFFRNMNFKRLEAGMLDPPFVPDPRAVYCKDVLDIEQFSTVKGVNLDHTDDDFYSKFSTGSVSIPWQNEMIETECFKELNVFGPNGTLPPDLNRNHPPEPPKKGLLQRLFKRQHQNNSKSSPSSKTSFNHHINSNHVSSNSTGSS
Description: KinaseProfiler kinase profiling. In kind it is biochemical. To be noted: 10 μM, ATP near Km. Put shortly:
as §1

In a further assay the target is T16, Rse (Homo sapiens, UniProt Q06418).
T16 construct: purchased Millipore, Inc. (KinaseProfiler service)
Description: KinaseProfiler kinase profiling. The format is biochemical. To be noted: 10 μM, ATP near Km. In outline: as §1

A further assay concerns the target T17, MST1 (Homo sapiens, UniProt Q13043).
T17 construct: purchased Millipore, Inc. (KinaseProfiler service)
Description: KinaseProfiler kinase profiling. In kind it is biochemical. To be noted: 10 μM, ATP near Km. Put shortly: as §1

In the next assay the target is T18, MRCKalpha (Homo sapiens, UniProt Q5VT25).
T18 construct: purchased Millipore, Inc. (KinaseProfiler service)
As to the kind of experiment: KinaseProfiler kinase profiling. In kind it is biochemical. To be noted: 10 μM, ATP near Km. Put shortly:
as §1

The target in the next assay is T19, PDGFRalpha (Homo sapiens, UniProt P16234).
T19 construct: purchased Millipore, Inc. (KinaseProfiler service)
T19 sequence (P16234 24-1089): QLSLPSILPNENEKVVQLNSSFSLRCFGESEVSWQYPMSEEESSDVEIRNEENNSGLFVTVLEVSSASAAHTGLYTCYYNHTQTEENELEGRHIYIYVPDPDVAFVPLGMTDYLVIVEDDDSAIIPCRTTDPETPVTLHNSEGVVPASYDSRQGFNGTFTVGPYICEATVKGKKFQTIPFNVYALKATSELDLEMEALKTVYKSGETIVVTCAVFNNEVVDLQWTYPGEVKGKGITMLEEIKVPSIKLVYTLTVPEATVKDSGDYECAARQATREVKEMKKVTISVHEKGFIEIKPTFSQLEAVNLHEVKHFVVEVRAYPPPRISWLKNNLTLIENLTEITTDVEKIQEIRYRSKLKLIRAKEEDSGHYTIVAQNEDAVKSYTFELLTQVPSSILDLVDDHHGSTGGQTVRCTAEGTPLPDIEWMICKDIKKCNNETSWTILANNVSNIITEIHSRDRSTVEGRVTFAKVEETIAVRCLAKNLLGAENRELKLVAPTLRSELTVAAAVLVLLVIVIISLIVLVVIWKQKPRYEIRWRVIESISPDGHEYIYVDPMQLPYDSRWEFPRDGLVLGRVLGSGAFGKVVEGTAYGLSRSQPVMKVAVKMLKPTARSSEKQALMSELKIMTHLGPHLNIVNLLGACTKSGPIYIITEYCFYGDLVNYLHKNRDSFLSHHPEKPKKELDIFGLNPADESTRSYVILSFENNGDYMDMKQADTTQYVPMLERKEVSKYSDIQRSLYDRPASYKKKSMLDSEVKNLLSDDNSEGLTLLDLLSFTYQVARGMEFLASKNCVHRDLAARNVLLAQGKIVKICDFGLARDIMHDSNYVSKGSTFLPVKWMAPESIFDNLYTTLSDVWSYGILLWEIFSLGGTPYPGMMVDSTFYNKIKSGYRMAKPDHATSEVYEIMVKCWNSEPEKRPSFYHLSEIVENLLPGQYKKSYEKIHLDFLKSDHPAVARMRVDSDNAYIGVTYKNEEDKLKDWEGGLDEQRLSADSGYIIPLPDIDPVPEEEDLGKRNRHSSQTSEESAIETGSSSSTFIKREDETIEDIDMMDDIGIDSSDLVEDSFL
Description: KinaseProfiler kinase profiling. In kind it is biochemical. Conditions: 10 μM, ATP near Km. Put shortly:
as §1

A further assay has as its target T20, HIPK2 (Homo sapiens, UniProt Q9H2X6).
T20 construct: purchased Millipore, Inc. (KinaseProfiler service)
Description: KinaseProfiler kinase profiling. The format is biochemical. To be noted: 10 μM, ATP near Km. Put shortly: as §1

A further assay deals with T21, PAK4 (Homo sapiens, UniProt O96013).
T21 construct: purchased Millipore, Inc. (KinaseProfiler service)
Description: KinaseProfiler kinase profiling. The format is biochemical. To be noted: 10 μM, ATP near Km. Put shortly: as §1

In assay [1] the target is T22, GST-tagged recombinant human p38α (Homo sapiens, UniProt Q16539).
T22 construct: GST-tagged cytoplasmic domain from Invitrogen, Catalog No. PV3305; purchased Invitrogen PV3305
As to the kind of experiment: p38α LanthaScreen Eu Kinase Binding Assay (Example G). To be noted: TrkA versus p38α binding. The method, then: The p38α binding activity of Compound 1 was determined in a p38α LanthaScreen™ Eu Kinase Binding Assay. […] Three fold serial dilutions of Compound 1 in DMSO were added to a final percentage of 2% DMSO. After 60-minute incubation at 22° C., the reaction was measured using the EnVision multimode plate reader (PerkinElmer) via TR-FRET dual wavelength detection at […]. The percent of control was calculated using a ratiometric emission factor. The IC50 value was determined by fitting a four parameter model to the percent of control data.

Consider `COCCN1C[C@@H](NC(=O)Nc2c(C)c(-c3cnc(C)nc3)nn2-c2ccccc2)[C@H](c2cccc(F)c2)C1` [Compound 1, 1-((3S,4R)-4-(3-fluorophenyl)-1-(2-methoxyethyl)pyrrolidin-3-yl)-3-(4-methyl-3-(2-methylpyrimidin-5-yl)-1-phenyl-1H-pyrazol-5-yl)urea], for which, in the assay on off-target kinases, the “activity against off-target kinases” value was “largely inactive”. Further, the “estimated inhibition of TrkA” value in the assay on TrkA was “higher”. Besides, the “Avg POC” value was found to be 115.5 POC on Axl; 129.5 POC at DRAK1; 106.5 POC on Pim-3; 102.5 POC on CHK2; 101 POC on GRK7; 107.5 POC at MKK6. For the same compound, the “Avg POC” value on CAMK1d is reported as 130 POC; at PrKX, 115.5 POC; on SRPK2 it was 96.5 POC; on DYRK2 it was 102 POC; at MEK1 it was 103.5 POC; on Lyn, 104.5 POC. The “Avg POC” value stood at 99.5 POC at Plk1; 102 POC on CLK2; 100 POC at GRK5; 102.5 POC at Rse; 107.5 POC at MST1; 90.5 POC at MRCKalpha. Further, the “Avg POC” value on PDGFRalpha worked out at 96 POC; at HIPK2, 101.5 POC; on PAK4 it was 97 POC. Besides, in [1], the “fold more potent against TrkA than p38α” value turned out to be 1000 fold.
